Data from patent publication US3983102A, “Process for preparing 5"-amino-4',5"-dideoxybutirosin A” (Parke, Davis & Company, priority 1975, dated 1976).
Converted amounts (≈) assume the structure as drawn.

What was measured:
Test in all cases: in vitro antibacterial screening, MIC by microtitration in TSB
Type in all cases: cell-based
Klebs. pneumoniae MGH-1 = details: Klebsiella pneumoniae, MGH1
From the text: (§1) They show activity when tested by well-recognized in vitro antibacterial screening procedures.

Pseudo. aerug. 74C-1 = details: Pseudomonas aeruginosa
From the text: as §1

Pseudo. aerug. VAD12-7-7 = details: Pseudomonas aeruginosa
From the text: as §1

Pseudo. aerug. UI-18 = details: Pseudomonas aeruginosa
From the text: as §1

Staph aureus S18713 = details: Staphylococcus aureus, Staph aureus S18713, butirosin resistant
From the text: as §1

Pseudo. aerug. 130 = details: Pseudomonas aeruginosa, Pseudo. aerug. 130, gentamicin resistant
From the text: as §1

Pseudo. aerug. No. 28 = details: Pseudomonas aeruginosa
From the text: as §1

Pseudo. aerug. 733 = details: Pseudomonas aeruginosa
From the text: as §1

Serr. marcescens IMM-5 = details: Serratia marcescens, IMM5
From the text: as §1

Pseudo. aerug. Aquilar = details: Pseudomonas aeruginosa, butirosin resistant
From the text: as §1

Entero. cloacae IMM-50 = details: Enterobacter cloacae, IMM50
From the text: as §1

Pseudo. aerug. 58.38 = details: Pseudomonas aeruginosa
From the text: as §1

Esch. coli JR-76.2 = details: Escherichia coli, JR76.2
From the text: as §1

Pseudo. aerug. G-76 = details: Pseudomonas aeruginosa, Pseudo. aerug. G-76, butirosin and gentamicin resistant
From the text: as §1

Pseudo. aerug. LA-3399 = details: Pseudomonas aeruginosa
From the text: as §1

## NCC[C@H](O)C(=O)N[C@@H]1C[C@H](N)[C@@H](O[C@H]2O[C@H](CN)C[C@H](O)[C@H]2N)[C@H](O[C@@H]2O[C@H](CN)[C@H](O)[C@H]2O)[C@H]1O [I carbonate, 5"-amino-4',5"-dideoxybutirosin A]
Klebs. pneumoniae MGH-1
  MIC: 6.3 µg/mL (≈ 11.7 µM)
Pseudo. aerug. 74C-1
  MIC: 3.1 µg/mL (≈ 5.76 µM)
Pseudo. aerug. VAD12-7-7
  MIC: 1.6 µg/mL (≈ 2.97 µM)
Pseudo. aerug. UI-18
  MIC: 6.3 µg/mL (≈ 11.7 µM)
Staph aureus S18713
  MIC: 6.3 µg/mL (≈ 11.7 µM)
Pseudo. aerug. 130
  MIC: 6.3 µg/mL (≈ 11.7 µM)
Pseudo. aerug. No. 28
  MIC: 3.1 µg/mL (≈ 5.76 µM)
Pseudo. aerug. 733
  MIC: 6.3 µg/mL (≈ 11.7 µM)
Serr. marcescens IMM-5
  MIC: 12.5 µg/mL (≈ 23.2 µM)
Pseudo. aerug. Aquilar
  MIC: 25 µg/mL (≈ 46.4 µM)
Entero. cloacae IMM-50
  MIC: 6.3 µg/mL (≈ 11.7 µM)
Pseudo. aerug. 58.38
  MIC: 6.3 µg/mL (≈ 11.7 µM)
Esch. coli JR-76.2
  MIC: 25 µg/mL (≈ 46.4 µM)
Pseudo. aerug. G-76
  MIC: 12.5 µg/mL (≈ 23.2 µM)
Pseudo. aerug. LA-3399
  MIC: 12.5 µg/mL (≈ 23.2 µM)
